Measurements from patent US10111902B2, “Polymers for reversing heparin-based anticoagulation” (University of British Columbia, priority 2011, dated 2018).
“Also recorded” adds a separate entry of the source.

Legend:
Format in all cases: biochemical, human
UFH = assay: Anti Xa neutralization of UFH in platelet poor plasma; conditions: One IU UFH per ml in platelet poor plasma
Protocol: (§1) Both JNK-1 and JNK-2 result in greater neutralization of unfractionated heparin at two doses (50 and 100 μg/ml), Tinzaparin (LMWH) and Enoxaparin (LMWH).

Tinzaparin = assay: Anti Xa neutralization of Tinzaparin in platelet poor plasma; conditions: One IU LMWH per ml in platelet poor plasma
Protocol: as §1

Enoxaparin = assay: Anti Xa neutralization of Enoxaparin in platelet poor plasma; conditions: One IU LMWH per ml in platelet poor plasma
Protocol: as §1

[1] = system: unfractionated heparin (UFH); assay: APTT assay, neutralization of UFH in citrate plasma
Protocol: In one example, a heparin binding synthetic polyvalent cationic macromolecule JNK-1 can neutralize UFH in human blood under in vitro conditions (FIGS. 4A and 4B). Citrate plasma was anti-coagulated with 1.0 U/ml UFH (UFH control) and was titrated with different concentrations of JNK-1 polymers (0.009 to 8.69 nanomoles/ml) and protamine (0.2 to 222.2 nanomoles/ml).
(§2) Citrate plasma was anticoagulated with 2.0 U/ml UFH, Enoxaparin and Tinzaparin and was treated with different concentrations of the HBSPCM polymers and protamine (0.001 to 0.25 mg/ml). The APTT was measured for each sample.
(§3) Citrate plasma was anticoagulated with UFH (2.0 IU/mL), Enoxaparin (2.0 IU/mL) and Tinzaparin (1.14 IU/mL) and was titrated with different concentrations of the HBSPCM polymers and protamine (0.001 to 0.25 mg/ml). The APTT was measured for each sample.
(§4) Ability of HBSPCM polymers JNK-9, JNK-10 and JNK-11 was studied for the range of concentration from 0.01 to 0.25 mg/mL prepared in 0.15 M saline. Citrated blood was spun at 3000 RPM for 10 min to obtain platelet poor plasma (PPP). The PPP was then heparinized by adding 45 μL of heparin (UFH, LMWH etc.) to 2200 μL of PPP final concentration of 2.0 IU/mL for UFH and Tinzaparin and 1.14 IU/mL for Enoxaparin. Normal control was prepared by adding 25 μL of 0.15 M saline to 250 μL of PPP. 25 μL of each antidote solution (polymer or protamine) was added to 225 μL of heparinized PPP. 250 μL of APTT reagent (actin FSL) was then added and samples were incubated for 3 min at 37° C. 250 μL of normal control was combined with 250 μL of APTT reagent and also incubated for 3 min. 50 μL of 0.025M CaCl2 was added to 100 μL aliquots of normal control and sample (in triplicate). A heparinized control containing 225 μL of PPP and 25 μL of saline was also prepared and run similar to normal control.

LMWH Tinzaparin = assay: APTT assay, neutralization of LMWH Tinzaparin in citrate plasma
Protocol: Citrate plasma was anti-coagulated with 2.0 U/ml LMWH (LMWH control) and was titrated with different concentrations of JNK-1 polymers (0.009 to 8.69 nanomoles/ml) (FIG. 4A) and protamine (0.2 to 222.2 nanomoles/ml) (FIG. 4B).
as §2, §3
as §4, with “250 μL of normal control was combined with 250 μL of APTT reagent and also incubated for 3 min. 50 μL of 0.025M CaCl2 was added to 100 μL aliquots of normal control and sample (in triplicate). A heparinized control containing 225 μL of PPP and 25 μL of saline was also prepared and run similar to normal control.” left out

LMWH Enoxaparin = assay: APTT assay, neutralization of LMWH Enoxaparin in citrate plasma; conditions: Enoxaparin 2.0 U/ml or 1.14 IU/mL, 0.001 to 0.25 mg/ml
Protocol: as §2, §3
as §4, with “A heparinized control containing 225 μL of PPP and 25 μL of saline was also prepared and run similar to normal control.” left out

protamine was tested, and the “Anti Xa Neutralization (%) of UFH at 50 μg/ml” value (UFH; 50 μg/ml) was 84%, the “Anti Xa Neutralization (%) of UFH at 100 μg/ml” value (UFH; 100 μg/ml) was 85 ± 0% and the “Anti Xa Neutralization (%) of Tinzaparin at 100 μg/ml” value (Tinzaparin) was 77 ± 1%. For the same substance, the “Anti Xa Neutralization (%) of Enoxaparin at 100 μg/ml” value (Enoxaparin) was 73 ± 4%, the “UFH neutralization (APTT)” value ([1]; citrate plasma, UFH 2.0 U/ml, polymers and protamine 0.001 to 0.25 mg/ml) was “neutralizes UFH and LMWH only in the narrow concentration range” and the “anticoagulant effect at higher concentration (APTT)” value ([1]; heparinized citrate plasma, 0.001 to 0.25 mg/ml) was “possesses anticoagulant activity”. The “anticoagulant effect at high concentration (APTT)” value ([1]; heparinized human citrate plasma, high doses of antidote) was “had an anticoagulant effect”, the “UFH neutralization (APTT)” value ([1]; human citrate plasma anti-coagulated with UFH (1.0 U/ml), titrated with JNK-1 0.009 to 8.69 or protamine 0.2 to 222.2 nanomoles/ml) was “complete neutralization occurred at a higher dosage of protamine; also recorded: acted with less efficiency for UFH within a smaller dose window” and the “LMWH Tinzaparin neutralization (APTT)” value (LMWH Tinzaparin; citrate plasma, Tinzaparin 2.0 U/ml or 1.14 IU/mL, 0.001 to 0.25 mg/ml) was “neutralizes UFH and LMWH only in the narrow concentration range”. For the same substance, the “LMWH Tinzaparin neutralization (APTT)” value (LMWH Tinzaparin; human citrate plasma anti-coagulated with LMWH Tinzaparin (2.0 U/ml), titrated with JNK-1 0.009 to 8.69 or protamine 0.2 to 222.2 nanomoles/ml) was “not at all; also recorded: incapable of neutralizing LMWH” and the “LMWH Enoxaparin neutralization (APTT)” value (LMWH Enoxaparin) was “neutralizes UFH and LMWH only in the narrow concentration range”.
